From patent publication US10219513B2, “Safening 4-amino-3-chloro-6-(4-chloro-2-fluoro-3-methoxyphenyl)-5-fluoropyridine-2-carboxylic acid compositions in Brassica species and methods of use thereof” (Dow AgroSciences LLC, priority 2016, dated 2019)

Columns and labels:
[1] = system: Brassica napus var. napobrassica (rutabaga, BRSNA); test: Greenhouse postemergence application, visual injury after 20-22 d, BRSNA; settings: for % Visual Injury Obs / Obs % visual injury: BRSNA
Procedure: (§1) Seeds of the desired test plant species were planted in Sun Gro MetroMix® 306 planting mixture, which typically has a pH of 6.0 to 6.8 and an organic matter content of about 30 percent, in plastic pots with a surface area of 103.2 square centimeters (cm^2). […] The plants were grown for 7-36 days (d) in a greenhouse with an approximate 14-hour (h) photoperiod which was maintained at about 23° C. during the day and 22° C. during the night. Nutrients and water were added on a regular basis and supplemental lighting was provided with overhead metal halide 1000-Watt lamps as necessary. The plants were employed for testing when they reached the second or third true leaf stage.
(§2) An aliquot of formulated benzyl 4-amino-3-chloro-6-(4-chloro-2-fluoro-3-methoxyphenyl)-5-fluoropyridine-2-carboxylate (florpyrauxifen-benzyl; 300 grams active ingredient per liter (g ai/L) suspension concentrate (SC)) was placed in a 25 mL glass vial and diluted in a volume of 1.25% (v/v) aqueous Agri-dex crop oil concentrated to obtain a stock solution. […] The concentrated stock solutions were diluted with an aqueous mixture of 1.25% v/v of aqueous Agri-dex crop oil concentrate to provide the appropriate application rates. Compound requirements are based upon a 12 milliliter (mL) application volume at a rate of 187 liters per hectare (L/ha). Stock solutions of the formulated materials were prepared following the same procedure. Spray solutions of the compound mixtures were prepared by adding the stock solutions to the appropriate amount of dilution solution to form a 12 mL spray solution. Formulated compounds were applied to the plant material with an overhead Mandel track sprayer equipped with 8002E nozzles calibrated to deliver 187 L/ha over an application area of 0.503 square meters (m^2) at a spray height of 18 inches (43 centimeters (cm)) above average plant canopy. Control plants were sprayed in the same manner with the solvent blank.
(§3) The treated plants and control plants were placed in a greenhouse as described above and watered by sub-irrigation to prevent wash-off of the test compounds. After 20-22 d, the condition of the test plants as compared with that of the control plants was determined visually and scored on a scale of 0 to 100 percent where 0 corresponds to no injury and 100 corresponds to complete kill. Colby's equation was used to determine the herbicidal effects expected from the mixtures.
(§4) Benzyl 4-amino-3-chloro-6-(4-chloro-2-fluoro-3-methoxyphenyl)-5-fluoropyridine-2-carboxylate (florpyrauxifen-benzyl, 300 g ai/L SC) was combined in two-, three-, and four-way mixtures with one or more of the following: clopyralid-olamine (as Lontrel™ 35A Herbicidal Concentrate), quinclorac (as Facet 75DF), isoxadifen-ethyl (100 g/L SC), cloquintocet-mexyl (120 g/L EC) or mefenpyr-diethyl (as mefenpyr-diethyl 15WP). The mixtures were applied to kale/Chinese kale (Brassica alboglabra, BRSAG), Juncea canola or brown mustard (Brassica juncea, BRSJU), rutabaga (Brassica napus var. napobrassica, BRSNA), all varieties of canola and oilseed rape (Brassica napus, BRSNN), Nexera™ canola (Brassica napus, BRSNN-NEX), winter oilseed rape (Brassica napus, BRSNW), Roundup Ready® canola (Brassica napus, RR-BRSNN), and turnip or Polish canola (Brassica rapa, BRSRR), and the phytotoxicity of the compositions was measured.
(§5) Colby's equation was used to determine the herbicidal effects expected from the mixtures evaluated in the described trials (Colby, S. R. Calculation of the synergistic and antagonistic response of herbicide combinations. Weeds 1967, 15, 20-22.).
(§6) The following equation was used to calculate the expected activity of mixtures containing two active ingredients, A and B: Expected=A+B−(A×B/100) • A=observed efficacy of active ingredient A at the same concentration as used in the mixture; • B=observed efficacy of active ingredient B at the same concentration as used in the mixture.

[2] = system: Brassica juncea (Juncea canola or brown mustard, BRSJU); test: Greenhouse postemergence application, visual injury after 20-22 d, BRSJU; settings: for % Visual Injury Obs / Obs % visual injury: BRSJU
Procedure: as §1, §2, §3, §4, §5, §6

[3] = system: Brassica alboglabra (kale/Chinese kale, BRSAG); test: Greenhouse postemergence application, visual injury after 20-22 d, BRSAG; settings: for % Visual Injury Obs / Obs % visual injury: BRSAG
Procedure: as §1, §2, §3, §4, §5, §6

[4] = postemergence application, greenhouse, application rate (g ai/ha) varies

O=C(O)c1c(Cl)ccc2cc(Cl)cnc12 [Quinclorac, 3,7-dichloro-8-quinolinecarboxylic acid]
0%: % Visual Injury Obs ([1]; 50 g ai/ha) | % Visual Injury Obs ([1]; 100 g ai/ha) | % Visual Injury Obs ([1]; 200 g ai/ha) | Obs % visual injury ([1]; partner alone 50 g ai/ha) | Obs % visual injury ([1]; partner alone 100 g ai/ha) | Obs % visual injury ([1]; partner alone 200 g ai/ha) | % Visual Injury BRSNA Obs [1, 4] | % Visual Injury BRSNA Obs ([1]; quinclorac 50 g ai/ha alone) | % Visual Injury BRSNA Obs ([1]; quinclorac 100 g ai/ha alone) | % Visual Injury BRSNA Obs ([1]; quinclorac 200 g ai/ha alone) | % Visual Injury Obs ([2]; 50 g ai/ha) | % Visual Injury Obs ([2]; 100 g ai/ha) | % Visual Injury Obs ([2]; 200 g ai/ha) | Obs % visual injury ([2]; partner alone 50 g ai/ha) | Obs % visual injury ([2]; partner alone 100 g ai/ha) | Obs % visual injury ([2]; partner alone 200 g ai/ha) | % Visual Injury BRSJU Obs [2, 4] | % Visual Injury BRSJU Obs ([2]; quinclorac 50 g ai/ha alone) | % Visual Injury BRSJU Obs ([2]; quinclorac 100 g ai/ha alone) | % Visual Injury BRSJU Obs ([2]; quinclorac 200 g ai/ha alone) | % Visual Injury Obs ([3]; 50 g ai/ha) | % Visual Injury Obs ([3]; 100 g ai/ha) | % Visual Injury Obs ([3]; 200 g ai/ha) | Obs % visual injury ([3]; partner alone 50 g ai/ha) | Obs % visual injury ([3]; partner alone 100 g ai/ha) | Obs % visual injury ([3]; partner alone 200 g ai/ha) | % Visual Injury BRSAG Obs [3, 4] | % Visual Injury BRSAG Obs ([3]; quinclorac 50 g ai/ha alone) | % Visual Injury BRSAG Obs ([3]; quinclorac 100 g ai/ha alone) | % Visual Injury BRSAG Obs ([3]; quinclorac 200 g ai/ha alone)
